ChEMBL document CHEMBL1136764, “N6-cyclopentyl-2-(3-phenylaminocarbonyltriazene-1-yl)adenosine (TCPA), a very selective agonist with high affinity for the human adenosine A1 receptor” (J Med Chem, 2003)

Experiments:
Adenosine receptor A2a [1] = molecular target: T1, Adenosine receptor A2a (Homo sapiens, UniProt P29274)
Description: Tested for binding affinity towards human adenosine A2A receptor using [3H]ZM-241385 as radioligand

Adenosine receptor A3 [2] = molecular target: T2, Adenosine receptor A3 (Homo sapiens, UniProt P0DMS8); experiment: Inhibition of [125 I]-IABMECA binding to human adenosine A3 receptor
T2 sequence (P0DMS8 whole entry): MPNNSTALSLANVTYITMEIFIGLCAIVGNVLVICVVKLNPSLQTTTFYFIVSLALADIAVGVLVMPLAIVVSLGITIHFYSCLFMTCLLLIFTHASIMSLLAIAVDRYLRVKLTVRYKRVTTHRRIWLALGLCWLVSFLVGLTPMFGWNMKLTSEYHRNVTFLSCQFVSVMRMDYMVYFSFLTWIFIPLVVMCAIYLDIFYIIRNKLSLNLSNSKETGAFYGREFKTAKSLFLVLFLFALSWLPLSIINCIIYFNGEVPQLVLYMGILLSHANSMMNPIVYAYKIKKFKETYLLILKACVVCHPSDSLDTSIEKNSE

[3] = molecular target: T3, Adenosine receptor A2b (Homo sapiens) (UniProt P29275); experiment: In vitro binding affinity towards human adenosine A2B receptor by [3H]DPCPX displacement at 10 uM.
T3 sequence (whole entry): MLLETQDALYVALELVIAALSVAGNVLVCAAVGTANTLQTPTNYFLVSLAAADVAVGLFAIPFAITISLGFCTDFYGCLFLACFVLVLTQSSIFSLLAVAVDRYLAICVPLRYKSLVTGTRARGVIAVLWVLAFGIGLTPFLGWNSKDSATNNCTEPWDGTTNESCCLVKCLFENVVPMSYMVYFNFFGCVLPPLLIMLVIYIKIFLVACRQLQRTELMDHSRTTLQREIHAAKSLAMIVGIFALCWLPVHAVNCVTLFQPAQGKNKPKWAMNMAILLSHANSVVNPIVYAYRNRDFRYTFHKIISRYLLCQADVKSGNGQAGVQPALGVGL

Adenosine receptor A1 [4] = molecular target: T4, Adenosine receptor A1 (Homo sapiens, UniProt P30542)
T4 sequence (P30542 whole entry): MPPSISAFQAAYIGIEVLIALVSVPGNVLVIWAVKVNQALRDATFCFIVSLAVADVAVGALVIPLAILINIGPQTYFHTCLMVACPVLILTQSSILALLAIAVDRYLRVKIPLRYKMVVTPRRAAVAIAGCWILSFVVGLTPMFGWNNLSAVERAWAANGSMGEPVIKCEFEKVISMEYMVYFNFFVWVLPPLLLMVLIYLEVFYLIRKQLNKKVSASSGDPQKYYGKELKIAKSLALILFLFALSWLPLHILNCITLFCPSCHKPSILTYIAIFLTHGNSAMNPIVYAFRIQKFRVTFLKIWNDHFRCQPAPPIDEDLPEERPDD
Description: In vitro binding affinity towards human adenosine A1 receptor by [3H]DPCPX displacement.

[5] = molecular target: T3, Adenosine receptor A2b (Homo sapiens); experiment: Binding affinity for human adenosine A2B receptor using [3H]DPCPX at 10 uM as percent displacement
Adenosine receptor A3 [6] = molecular target: T2, Adenosine receptor A3; experiment: Binding affinity for human Adenosine A3 receptor using [125 I]-IABMECA
Adenosine receptor A2a [7] = molecular target: T1, Adenosine receptor A2a; experiment: Binding affinity for human Adenosine A2A receptor using [3H]ZM-241385
Adenosine receptor A2a [8] = molecular target: T1, Adenosine receptor A2a; experiment: Percent displacement of [3H]ZM-241,385 from human adenosine A2A receptor at 10 uM
Adenosine receptor A1 [9] = molecular target: T4, Adenosine receptor A1; experiment: Inhibition of cAMP formation in CHO cells expressing human adenosine A1 receptor; type: cell-based
[10] = molecular target: Adenosine receptors; A1 & A3 (Homo sapiens) (UniProt P30542+P0DMS8); experiment: Selectivity for adenosine A1 and A3 receptors; type: protein assay
[11] = molecular target: T5, Adenosine receptor A1 (Homo sapiens) (UniProt P30542); experiment: Relative potency for human adenosine A1 receptor (Ki value)
T5 sequence (whole entry): T4 sequence (P30542 whole entry)

[12] = molecular target: T6, Adenosine receptor A3 (Homo sapiens) (UniProt P0DMS8); experiment: Relative potency for human adenosine A3 receptor (Ki value)
T6 sequence (whole entry): T2 sequence (P0DMS8 whole entry)

[13] = molecular target: T5, Adenosine receptor A1 (Homo sapiens); experiment: Percent displacement of [3H]DPCPX from human adenosine A1 receptor at 10 uM
Adenosine receptor A2a [14] = molecular target: T1, Adenosine receptor A2a; experiment: Binding affinity for human adenosine A2A receptor using [3H]ZM-241385; insoluble
[15] = molecular target: T5, Adenosine receptor A1 (Homo sapiens); experiment: Binding affinity for human adenosine A1 receptor using [3H]DPCPX; insoluble
[16] = molecular target: T6, Adenosine receptor A3 (Homo sapiens); experiment: Binding affinity for human adenosine A3 receptor using [125 I]-IABMECA; insoluble
[17] = molecular target: T3, Adenosine receptor A2b (Homo sapiens); experiment: Percent displacement of [3H]DPCPX from human adenosine A2B receptor at 10 uM; insoluble

T1 sequence (P29274 whole entry): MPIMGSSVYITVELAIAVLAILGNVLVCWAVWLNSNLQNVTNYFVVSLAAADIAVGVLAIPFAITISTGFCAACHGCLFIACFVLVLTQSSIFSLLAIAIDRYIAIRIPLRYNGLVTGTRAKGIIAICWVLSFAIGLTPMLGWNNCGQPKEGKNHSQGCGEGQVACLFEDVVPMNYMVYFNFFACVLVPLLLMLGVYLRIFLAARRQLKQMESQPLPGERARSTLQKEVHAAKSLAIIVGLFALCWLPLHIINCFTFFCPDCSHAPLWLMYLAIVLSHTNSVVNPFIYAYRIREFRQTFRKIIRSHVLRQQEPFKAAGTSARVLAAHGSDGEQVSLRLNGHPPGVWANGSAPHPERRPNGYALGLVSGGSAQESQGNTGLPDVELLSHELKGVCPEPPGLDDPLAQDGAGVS

Ki (Adenosine receptor A2a [1]) [nM] | Ki (Adenosine receptor A3 [2]) [nM] | Displacement [3] [%] | Ki (Adenosine receptor A1 [4]) [nM] | Ki (Adenosine receptor A3 [6]) [nM] | Ki (Adenosine receptor A2a [7]) [nM] | Structure (SMILES) | also measured
125 | 81 | 18 | 20 | – | – | COc1ccccc1NC(=O)/N=N/Nc1nc(N)c2ncn([C@@H]3O[C@H](CO)[C@@H](O)[C@H]3O)c2n1 | –
– | – | – | 1900 | 190 | 1000 | Nc1nc(/N=N/NC(=O)c2ccccc2)nc2c1ncn2[C@@H]1O[C@H](CO)[C@@H](O)[C@H]1O | Displacement [5]: 8%
639 | – | – | – | – | – | OC[C@H]1O[C@@H](n2cnc3c(NC4CCCC4)nc(Cl)nc32)[C@H](O)[C@@H]1O | –
– | – | 64 | – | – | – | Nc1nc(/N=N/NC(=O)Nc2cccc(Cl)c2)nc2c1ncn2C1O[C@H](CO)[C@@H](O)[C@H]1O (some centres undefined) | Displacement (Adenosine receptor A2a [8]): 29.9%
– | 175 | 10 | 204 | – | – | NC(=O)/N=N/Nc1nc(Nc2ccccc2)c2ncn([C@@H]3O[C@H](CO)[C@@H](O)[C@H]3O)c2n1 | Displacement (Adenosine receptor A2a [8]): 17.7%
980 | 140 | 10 | 3.1 | – | – | O=C(N/N=N/c1nc(NCC(c2ccccc2)c2ccccc2)c2ncn([C@@H]3O[C@H](CO)[C@@H](O)[C@H]3O)c2n1)Nc1ccccc1 | –
– | – | – | 15 | 59 | – | Nc1nc(N=NNC(=O)Nc2cccc(Cl)c2)nc2c1ncn2C1O[C@H](CO)[C@@H](O)[C@H]1O (some centres undefined) | –
210 | 600 | 10 | 2.8 | – | – | O=C(N/N=N/c1nc(NC2CCCC2)c2ncn([C@@H]3O[C@H](CO)[C@@H](O)[C@H]3O)c2n1)Nc1ccccc1 | IC50 (Adenosine receptor A1 [9]): 1.5 nM; Selectivity [10]: 214; Relative potency [11]: 1; Relative potency [12]: 1
– | – | 6 | – | – | – | Nc1nc(/N=N/NC(=O)Oc2ccccc2)nc2c1ncn2C1O[C@H](CO)[C@@H](O)[C@H]1O (some centres undefined) | Displacement (Adenosine receptor A2a [8]): 38.9%; Displacement [13]: 43%
– | – | – | – | 580 | 720 | Nc1nc(N=O)nc2c1ncn2[C@@H]1O[C@H](CO)[C@@H](O)[C@H]1O | Displacement [5]: 14%; Displacement [13]: 40%
– | 577 | – | – | – | – | Nc1nc(NN=NC(=O)Oc2ccccc2)nc2c1ncn2C1O[C@H](CO)[C@@H](O)[C@H]1O (some centres undefined) | –
45 | 179 | 30 | 23 | – | – | Nc1nc(/N=N/NC(=O)Nc2ccccc2Cl)nc2c1ncn2[C@@H]1O[C@H](CO)[C@@H](O)[C@H]1O | –
– | – | 9 | 140 | 209 | 88 | NC(=O)/N=N/Nc1nc(N)c2ncn([C@@H]3O[C@H](CO)[C@@H](O)[C@H]3O)c2n1 | –
– | – | – | – | – | – | Nc1nc(/N=N/NC(=O)Nc2cccc(C(F)(F)F)c2)nc2c1ncn2C1O[C@H](CO)[C@@H](O)[C@H]1O (some centres undefined) | Other (Adenosine receptor A2a [14]): Insoluble; Other [15]: Insoluble; Other [16]: Insoluble; Other [17]: Insoluble
– | – | 15 | 45 | 113 | 19 | CCNC(=O)/N=N/Nc1nc(N)c2ncn([C@@H]3O[C@H](CO)[C@@H](O)[C@H]3O)c2n1 | –
– | – | – | – | 110 | 180 | Nc1nc(/N=N/c2ccccc2)nc2c1ncn2[C@@H]1O[C@H](CO)[C@@H](O)[C@H]1O | Displacement [5]: 11%
– | – | 21 | 15 | 39 | – | Nc1nc(/N=N/NC(=O)Nc2ccc(Cl)cc2)nc2c1ncn2[C@@H]1O[C@H](CO)[C@@H](O)[C@H]1O | Displacement (Adenosine receptor A2a [8]): 4.4%

Structure (SMILES) | Ki (Adenosine receptor A2a [1]) [nM] | Ki (Adenosine receptor A3 [2]) [nM] | Displacement [3] [%] | Ki (Adenosine receptor A1 [4]) [nM] | Ki (Adenosine receptor A3 [6]) [nM] | Ki (Adenosine receptor A2a [7]) [nM] | also measured
COc1ccc(NC(=O)/N=N/Nc2nc(N)c3ncn([C@@H]4O[C@H](CO)[C@@H](O)[C@H]4O)c3n2)cc1 | 25 | 73 | 15 | 20 | – | – | –
Nc1nc(/N=N/NC(=O)NC2CCCCC2)nc2c1ncn2[C@@H]1O[C@H](CO)[C@@H](O)[C@H]1O | – | – | 6 | 5.8 | 63 | 25 | –
Nc1nc(/N=N/NC(=O)NCc2ccccc2)nc2c1ncn2[C@@H]1O[C@H](CO)[C@@H](O)[C@H]1O | 25 | 147 | 9 | 42 | – | – | –
Nc1nc(/N=N/NC(=O)Nc2ccccc2)nc2c1ncn2[C@@H]1O[C@H](CO)[C@@H](O)[C@H]1O | – | – | 54 | 6.1 | 110 | 25 | –
Nc1nc(/N=N/NC(=O)Nc2nccs2)nc2c1ncn2[C@@H]1O[C@H](CO)[C@@H](O)[C@H]1O | 25 | 610 | 79 | 24 | – | – | –
O=C(N/N=N/c1nc(Nc2ccccc2)c2ncn([C@@H]3O[C@H](CO)[C@@H](O)[C@H]3O)c2n1)Nc1ccccc1 | 24.3 | 90 | 9 | 430 | – | – | –
